Laboratory results taken from the NIST ThermoML archive (doi:10.1016/j.jct.2011.04.011).

Details: Liquid, Vibrating tube method

COC [dimethyl ether]
mass density [kg/m3]
Details | 293.84 K | 303.45 K | 313.18 K | 323 K | 332.83 K | 343.01 K | 353 K | 362.91 K | 372.94 K
1000 kPa | 669.27 | 653.54 | – | – | – | – | – | – | –
3000 kPa | 673.21 | 657.94 | 641.72 | 624.46 | 605.7 | 584.39 | 560.89 | – | –
5000 kPa | 676.85 | 662.06 | 646.5 | 630.01 | 612.33 | 592.63 | 571.39 | 547.69 | 519.39
10000 kPa | 685.08 | 671.42 | 657.11 | 642.19 | 626.46 | 609.39 | 591.7 | 572.99 | 552.4
15000 kPa | 692.61 | 679.73 | 666.38 | 652.54 | 638.17 | 622.87 | 607.19 | 591.04 | 573.78
20000 kPa | 699.44 | 687.19 | 674.68 | 661.65 | 648.33 | 634.17 | 619.91 | 605.41 | 590.14
25000 kPa | 705.75 | 694.14 | 682.06 | 669.81 | 657.3 | 644.06 | 630.86 | 617.51 | 603.55
30000 kPa | 711.53 | 700.39 | 688.96 | 677.2 | 665.34 | 652.87 | 640.46 | 627.99 | 615.07
35000 kPa | 717 | 706.33 | 695.3 | 684.06 | 672.7 | 660.84 | 649.09 | 637.26 | 625.15
40000 kPa | 722.21 | 711.79 | 701.19 | 690.37 | 679.54 | 668.11 | 656.92 | 645.67 | 634.21
50000 kPa | 731.68 | 721.98 | 711.96 | 701.9 | 691.67 | 681.15 | 670.8 | 660.45 | 649.98
60000 kPa | 740.35 | 731.17 | 721.63 | 712.04 | 702.5 | 692.63 | 682.9 | 673.27 | 663.51
70000 kPa | 748.4 | 739.59 | 730.55 | 721.44 | 712.29 | 702.89 | 693.76 | 684.63 | 675.48
